Laboratory results published in ChEMBL document CHEMBL3885861, “Open TG-GATES”.

Species: Rattus norvegicus
Experiment: Open TG-GATES - Regimen: Single
Format: toxicity, organism-based, Sprague-Dawley
Design: regimen Single, gender Male, age 6 weeks
Settings: in vivo, ip, 0.001 mg/kg, route intraperitoneal injection, dose 1 ug/Kg, dose level Low; for APTT / Bas / Eos / Fbg / Hb / Ht / Lym / MCH / MCHC / MCV / Mono / Neu / PT / Plat / RBC / Ret / WBC: tissue Blood; for KIDNEY_L / KIDNEY_R / KIDNEY_TOTAL: tissue Kidney; for LIVER: tissue Liver; for A/G / ALP / ALT / AST / BUN / CRE / Ca / Cl / DBIL / GLC / IP / K / LDH / Na / PL / RALB / TBIL / TC / TG / TP / gamma-GTP: tissue Plasma

H-KGDRLS-OH [TNF-ALPHA] was tested, and the TERMINAL_BW (3 h) was 199 g, the APTT (3 h) was 17.8 s and the Bas (3 h) was 0.4%. The Eos (3 h) was 0.4%, the Fbg (3 h) was 267.2 mg/dL and the Hb (3 h) was 12.9 g/dL. The Ht (3 h) was 39.8%, the Lym (3 h) was 65.8% and the MCH (3 h) was 21.4 pg. It also gave an MCHC (3 h) of 32.4%, an MCV (3 h) of 65.8 fL and a Mono (3 h) of 4.2%. The Neu (3 h) was 28%, the PT (3 h) was 15.4 s and the Plat (3 h) was 115.7 x10_4/uL. For the same substance, the RBC (3 h) was 605.4 x10_4/ul, the Ret (3 h) was 9.7% and the WBC (3 h) was 95.8 x10_2/uL. For the same substance, the KIDNEY_L (3 h) was 0.9 g, the KIDNEY_R (3 h) was 0.9 g and the KIDNEY_TOTAL (3 h) was 1.8 g. It also gave an LIVER (3 h) of 9.3 g, an A/G (3 h) of 0.9 and an ALP (3 h) of 1460 IU/L. The ALT (3 h) was 47.8 IU/L, the AST (3 h) was 77.2 IU/L and the BUN (3 h) was 10.4 mg/dL. It also gave a CRE (3 h) of 0.2 mg/dL, a Ca (3 h) of 10.8 mg/dL and a Cl (3 h) of 105.6 meq/L. It also gave a DBIL (3 h) of 0.01 mg/dL, a GLC (3 h) of 177.2 mg/dL and an IP (3 h) of 9.8 mg/dL. For the same substance, the K (3 h) was 4.1 meq/L, the LDH (3 h) was 69.6 IU/L and the Na (3 h) was 142 meq/L. For the same substance, the PL (3 h) was 154.4 mg/dL, the RALB (3 h) was 2.4 g/dL and the TBIL (3 h) was 0.056 mg/dL. For the same substance, the TC (3 h) was 83 mg/dL, the TG (3 h) was 71.6 mg/dL and the TP (3 h) was 5.2 g/dL. It also gave a gamma-GTP (3 h) of 1.2 IU/L, a TERMINAL_BW (6 h) of 195 g and an APTT (6 h) of 16.4 s. For the same substance, the Bas (6 h) was 0%, the Eos (6 h) was 0.2% and the Fbg (6 h) was 310.6 mg/dL. The Hb (6 h) was 12.9 g/dL, the Ht (6 h) was 39.3% and the Lym (6 h) was 53.8%. The MCH (6 h) was 21.1 pg, the MCHC (6 h) was 32.8% and the MCV (6 h) was 64.3 fL. The Mono (6 h) was 2%, the Neu (6 h) was 43.2% and the PT (6 h) was 15.3 s. It also gave a Plat (6 h) of 115.3 x10_4/uL, an RBC (6 h) of 612.4 x10_4/ul and a Ret (6 h) of 8.4%. It also gave a WBC (6 h) of 82.5 x10_2/uL, a KIDNEY_L (6 h) of 0.8 g and a KIDNEY_R (6 h) of 0.9 g. It also gave a KIDNEY_TOTAL (6 h) of 1.7 g, an LIVER (6 h) of 8.3 g and an A/G (6 h) of 0.9. The ALP (6 h) was 1365.6 IU/L, the ALT (6 h) was 36.4 IU/L and the AST (6 h) was 69 IU/L. It also gave a BUN (6 h) of 7.8 mg/dL, a CRE (6 h) of 0.2 mg/dL and a Ca (6 h) of 10.8 mg/dL. For the same substance, the Cl (6 h) was 105.2 meq/L, the DBIL (6 h) was 0.006 mg/dL and the GLC (6 h) was 171.4 mg/dL. It also gave an IP (6 h) of 10 mg/dL, a K (6 h) of 3.7 meq/L and an LDH (6 h) of 69.2 IU/L. The Na (6 h) was 143.4 meq/L, the PL (6 h) was 139.8 mg/dL and the RALB (6 h) was 2.5 g/dL. For the same substance, the TBIL (6 h) was 0.06 mg/dL, the TC (6 h) was 80.4 mg/dL and the TG (6 h) was 31.6 mg/dL. The TP (6 h) was 5.3 g/dL, the gamma-GTP (6 h) was 1.2 IU/L and the TERMINAL_BW (9 h) was 195.3 g. For the same substance, the APTT (9 h) was 16.7 s, the Bas (9 h) was 0% and the Eos (9 h) was 0.2%. It also gave a Fbg (9 h) of 364.8 mg/dL, a Hb (9 h) of 13 g/dL and a Ht (9 h) of 40.1%. The Lym (9 h) was 68.2%, the MCH (9 h) was 21.4 pg and the MCHC (9 h) was 32.4%. For the same substance, the MCV (9 h) was 66.1 fL, the Mono (9 h) was 2.2% and the Neu (9 h) was 28.6%. It also gave a PT (9 h) of 15.3 s, a Plat (9 h) of 97.2 x10_4/uL and an RBC (9 h) of 607 x10_4/ul. For the same substance, the Ret (9 h) was 8.6%, the WBC (9 h) was 61.4 x10_2/uL and the KIDNEY_L (9 h) was 0.9 g. For the same substance, the KIDNEY_R (9 h) was 0.9 g, the KIDNEY_TOTAL (9 h) was 1.8 g and the LIVER (9 h) was 8.4 g. For the same substance, the A/G (9 h) was 0.9, the ALP (9 h) was 1554.2 IU/L and the ALT (9 h) was 38.8 IU/L. The AST (9 h) was 71.4 IU/L, the BUN (9 h) was 8.2 mg/dL and the CRE (9 h) was 0.2 mg/dL. The Ca (9 h) was 10.6 mg/dL, the Cl (9 h) was 105.2 meq/L and the DBIL (9 h) was 0.008 mg/dL. The GLC (9 h) was 169.6 mg/dL, the IP (9 h) was 10.5 mg/dL and the K (9 h) was 3.7 meq/L. The LDH (9 h) was 47.8 IU/L, the Na (9 h) was 142.4 meq/L and the PL (9 h) was 154.2 mg/dL. For the same substance, the RALB (9 h) was 2.5 g/dL, the TBIL (9 h) was 0.066 mg/dL and the TC (9 h) was 84 mg/dL. It also gave a TG (9 h) of 39.6 mg/dL, a TP (9 h) of 5.4 g/dL and a gamma-GTP (9 h) of 1 IU/L. It also gave a TERMINAL_BW (24 h) of 211.6 g, an APTT (24 h) of 17.8 s and a Bas (24 h) of 0%. For the same substance, the Eos (24 h) was 1%, the Fbg (24 h) was 353.2 mg/dL and the Hb (24 h) was 13.1 g/dL. The Ht (24 h) was 40.4%, the Lym (24 h) was 79.4% and the MCH (24 h) was 21.5 pg. The MCHC (24 h) was 32.4%, the MCV (24 h) was 66.4 fL and the Mono (24 h) was 3%. For the same substance, the Neu (24 h) was 15.8%, the PT (24 h) was 15.4 s and the Plat (24 h) was 108.1 x10_4/uL. The RBC (24 h) was 608.8 x10_4/ul, the Ret (24 h) was 8.2% and the WBC (24 h) was 71.1 x10_2/uL. It also gave a KIDNEY_L (24 h) of 0.9 g, a KIDNEY_R (24 h) of 0.9 g and a KIDNEY_TOTAL (24 h) of 1.8 g. The LIVER (24 h) was 10.2 g, the A/G (24 h) was 0.8 and the ALP (24 h) was 1816.8 IU/L. It also gave an ALT (24 h) of 43.2 IU/L, an AST (24 h) of 70.8 IU/L and a BUN (24 h) of 15.4 mg/dL. The CRE (24 h) was 0.2 mg/dL, the Ca (24 h) was 11.3 mg/dL and the Cl (24 h) was 106 meq/L. The DBIL (24 h) was 0.008 mg/dL, the GLC (24 h) was 185.4 mg/dL and the IP (24 h) was 8.7 mg/dL. It also gave a K (24 h) of 4.5 meq/L, an LDH (24 h) of 86.4 IU/L and a Na (24 h) of 142.2 meq/L. The PL (24 h) was 158.6 mg/dL, the RALB (24 h) was 2.7 g/dL and the TBIL (24 h) was 0.042 mg/dL. For the same substance, the TC (24 h) was 81.8 mg/dL, the TG (24 h) was 80.2 mg/dL and the TP (24 h) was 5.8 g/dL. For the same substance, the gamma-GTP (24 h) was 1 IU/L.
